Active and inactive are the calls of the source. The calls are words filed in the database; no cut-off is given here.
Experiments:
[1] = Apparent permeability across apical to basolateral side in human Caco-2 cells incubated for 2 hr by high-throughput spectrometric analysis; format: ADME, cell-based
[2] = Efflux ratio of apparent permeability from basolateral to apical side over apical to basolateral side in human Caco-2 cells incubated for 2 hr by high-throughput spectrometric analysis; format: ADME, cell-based
K562 = experiment: Cytotoxicity against human K562 cells assessed as inhibition of cell growth incubated for 72 hrs by MTS assay; format: functional, cell-based; settings: K562, 72 h
[3] = Microsomal stability in human liver microsome as compound remaining at 2 uM measured after 60 mins in presence of NADPH by RF-MS analysis; format: ADME; settings: liver microsomes, read-out: Stability
[4] = Cytotoxicity against human BJ cells assessed as inhibition of cell growth incubated for 72 hrs by MTS assay; format: toxicity, cell-based
[5] = Chemical stability of the compound in PBS buffer assessed as compound remaining at pH 7.4 at 2 uM measured after 60 mins by RF-MS analysis; format: physicochemical; settings: read-out: Stability
[6] = Plasma stability in human assessed as compound remaining at 2 uM measured after 60 mins by RF-MS analysis; format: ADME, cell-free; settings: read-out: Stability
[7] = Apparent permeability across apical to basolateral side in dog MDCK-MDR1 cells incubated for 1 hr by high-throughput spectrometric analysis; format: ADME, cell-based, Canis lupus familiaris
CEM-DNR = experiment: Cytotoxicity against human CEM-DNR cells assessed as inhibition of cell growth incubated for 72 hrs by MTS assay; format: functional, cell-based
CCRF-CEM [8] = experiment: Induction of apoptosis in human CCRF-CEM cells assessed as effect on total Rb protein level at 5 times IC50 concentration incubated for 24 hrs by western blot assay; format: functional, cell-based
[9] = Cytotoxicity against human K562-Tax cells assessed as inhibition of cell growth incubated for 72 hrs by MTS assay; format: functional, cell-based
[10] = Apparent permeability across apical to basolateral side in human Caco-2 cells assessed as drug recovery incubated for 2 hr by high-throughput spectrometric analysis; format: ADME, cell-based; settings: read-out: Drug recovery
CCRF-CEM [11] = experiment: Induction of apoptosis in human CCRF-CEM cells assessed as late apoptotic cells at 5 times IC50 concentration incubated for 24 hrs by annexin V FITC/propidium iodide staining based flow cytometry (reference value: 1.4 %); format: functional
CCRF-CEM [12] = experiment: Induction of cell cycle arrest in human CCRF-CEM cells assessed as accumulation of cells at G1 phase at 1 times IC50 concentration incubated for 24 to 72 hrs by propidium iodide staining based flow cytometry; format: functional; settings: time 24-72 hrs
CCRF-CEM [13] = experiment: Cytotoxicity against human CCRF-CEM cells assessed as inhibition of cell growth incubated for 72 hrs by MTS assay; format: functional, cell-based
CCRF-CEM [14] = experiment: Induction of cell cycle arrest in human CCRF-CEM cells assessed as decrease of cell population at S phase at 5 times IC50 concentration incubated for 24 to 72 hrs by propidium iodide staining based flow cytometry; format: functional; settings: time 24-72 hrs
[15] = Chemical stability of the compound in PBS buffer assessed as compound remaining at pH 7.4 at 2 uM measured after 120 mins by RF-MS analysis; format: physicochemical; settings: read-out: Stability
CCRF-CEM [16] = experiment: Induction of apoptosis in human CCRF-CEM cells assessed as early apoptotic cells at 1 times IC50 concentration incubated for 24 hrs by annexin V FITC/propidium iodide staining based flow cytometry (reference value: 2.6 %); format: functional
A549 = experiment: Cytotoxicity against human A549 cells assessed as inhibition of cell growth incubated for 72 hrs by MTS assay; format: functional, cell-based; settings: A549, 72 h
CCRF-CEM [17] = experiment: Induction of apoptosis in human CCRF-CEM cells assessed as effect on total Rb protein level at 1 times IC50 concentration incubated for 24 hrs by western blot assay; format: functional, cell-based
[18] = Chemical stability of the compound in PBS buffer assessed as compound remaining at pH 7.4 at 2 uM measured after 30 mins by RF-MS analysis; format: physicochemical; settings: read-out: Stability
[19] = Plasma stability in human assessed as compound remaining at 2 uM measured after 15 mins by RF-MS analysis; format: ADME, cell-free; settings: read-out: Stability
[20] = Apparent permeability across apical to basolateral side in dog MDCK-MDR1 cells assessed as drug recovery incubated for 1 hr by high-throughput spectrometric analysis; format: ADME, cell-based, Canis lupus familiaris; settings: read-out: Drug recovery
U2OS = experiment: Cytotoxicity against human U2OS cells assessed as inhibition of cell growth incubated for 72 hrs by MTS assay; format: functional, cell-based
[21] = Plasma protein binding in human assessed as fraction bound at 10 uM incubated for 4 hrs by rapid equilibrium dialysis based RF-MS analysis; format: ADME, cell-free; settings: read-out: PPB (converted)
[22] = Chemical stability of the compound in PBS buffer assessed as compound remaining at pH 7.4 at 2 uM measured after 15 mins by RF-MS analysis; format: physicochemical; settings: read-out: Stability
CCRF-CEM [23] = experiment: Induction of cell cycle arrest in human CCRF-CEM cells assessed as accumulation of cells at G1 phase at 5 times IC50 concentration incubated for 24 to 72 hrs by propidium iodide staining based flow cytometry; format: functional; settings: time 24-72 hrs
[24] = Efflux ratio of apparent permeability from basolateral to apical side over apical to basolateral side in dog MDCK-MDR1 cells incubated for 1 hr by high-throughput spectrometric analysis; format: ADME, cell-based, Canis lupus familiaris
[25] = Plasma stability in human assessed as compound remaining at 2 uM measured after 120 mins by RF-MS analysis; format: ADME, cell-free; settings: read-out: Stability
[26] = Plasma stability in human assessed as compound remaining at 2 uM measured after 30 mins by RF-MS analysis; format: ADME, cell-free; settings: read-out: Stability
CCRF-CEM [27] = experiment: Induction of apoptosis in human CCRF-CEM cells assessed as decrease in cell number at 5 times IC50 concentration incubated for 24 to 74 hrs by annexin V FITC/propidium iodide staining based flow cytometry; format: functional; settings: time 24-74 hrs
CCRF-CEM [28] = experiment: Induction of apoptosis in human CCRF-CEM cells assessed as viable cells at 5 times IC50 concentration incubated for 24 hrs by annexin V FITC/propidium iodide staining based flow cytometry (reference value: 96 %); format: functional
CCRF-CEM [29] = experiment: Induction of apoptosis in human CCRF-CEM cells assessed as decrease in cell number at 1 times IC50 concentration incubated for 24 to 74 hrs by annexin V FITC/propidium iodide staining based flow cytometry; format: functional; settings: time 24-74 hrs
CCRF-CEM [30] = experiment: Induction of cell cycle arrest in human CCRF-CEM cells assessed as decrease of cell population at S phase at 1 times IC50 concentration incubated for 24 to 72 hrs by propidium iodide staining based flow cytometry; format: functional; settings: time 24-72 hrs
[31] = Cytotoxicity against human MRC5 cells assessed as inhibition of cell growth incubated for 72 hrs by MTS assay; format: toxicity, cell-based
[32] = Microsomal stability in human liver microsome as compound remaining at 2 uM measured after 30 mins in presence of NADPH by RF-MS analysis; format: ADME; settings: liver microsomes, read-out: Stability
CCRF-CEM [33] = experiment: Induction of apoptosis in human CCRF-CEM cells assessed as late apoptotic cells at 1 times IC50 concentration incubated for 24 hrs by annexin V FITC/propidium iodide staining based flow cytometry (reference value: 1.4 %); format: functional
CCRF-CEM [34] = experiment: Induction of apoptosis in human CCRF-CEM cells assessed as early apoptotic cells at 5 times IC50 concentration incubated for 24 hrs by annexin V FITC/propidium iodide staining based flow cytometry (reference value: 2.6 %); format: functional
CCRF-CEM [35] = experiment: Induction of apoptosis in human CCRF-CEM cells assessed as viable cells at 1 times IC50 concentration incubated for 24 hrs by annexin V FITC/propidium iodide staining based flow cytometry (reference value: 96 %); format: functional
[36] = Microsomal stability in human liver microsome as compound remaining at 2 uM measured after 15 mins in presence of NADPH by RF-MS analysis; format: ADME; settings: liver microsomes, read-out: Stability
[37] = Cytotoxicity against human p53HCT116 cells assessed as inhibition of cell growth incubated for 72 hrs by MTS assay; format: functional, cell-based; settings: p53HCT116, 72 h
HCT-116 = experiment: Cytotoxicity against human HCT-116 cells assessed as inhibition of cell growth incubated for 72 hrs by MTS assay; format: functional, cell-based; settings: HCT-116, 72 h

Compound: C=C(C)[C@@H]1CC[C@]2(C(=O)O)CC[C@]3(C)[C@H](CC[C@@H]4[C@@]5(C)CC=C(c6ccc(O)cc6)C(C)(C)[C@@H]5CC[C@]43C)[C@@H]12
- Papp A→B at 2 h [1]: 1.69 ×10⁻⁶ cm/s
- efflux ratio at 2 h [2]: 1.47
- IC50 (K562): 6.2 µM
- remaining at 1 h, 2 µM [3]: 92.9%
- IC50 at 72 h [4]: 31 µM
- remaining at 1 h, 2 µM [5]: 94%
- remaining at 1 h, 2 µM [6]: 86.8%
- Papp A→B at 1 h [7]: 4.27 ×10⁻⁶ cm/s
- IC50 (CEM-DNR): 3.3 µM
- Activity (CCRF-CEM [8]): inactive
- IC50 [9]: 3.3 µM
- recovery at 2 h [10]: 65.2%
- Activity (CCRF-CEM [11]): 1.9%
- Activity (CCRF-CEM [12]): Active
- IC50 (CCRF-CEM [13]): 0.69 µM
- Activity (CCRF-CEM [14]): Active
- remaining at 2 h, 2 µM [15]: 89.6%
- Activity (CCRF-CEM [16]): 3.4%
- IC50 (A549): 6.2 µM
- Activity (CCRF-CEM [17]): inactive
- remaining at 0.5 h, 2 µM [18]: 98.7%
- remaining at 0.25 h, 2 µM [19]: 93.9%
- recovery at 1 h [20]: 55.9%
- IC50 (U2OS): 11 µM
- fraction unbound at 4 h, 10 µM [21]: 0.242
- remaining at 0.25 h, 2 µM [22]: 98.9%
- Activity (CCRF-CEM [23]): Active
- efflux ratio at 1 h [24]: 2.05
- remaining at 2 h, 2 µM [25]: 74.4%
- remaining at 0.5 h, 2 µM [26]: 88.1%
- Activity (CCRF-CEM [27]): Active
- Activity (CCRF-CEM [28]): 94.2%
- Activity (CCRF-CEM [29]): Active
- Activity (CCRF-CEM [30]): Active
- IC50 at 72 h [31]: 27 µM
- remaining at 0.5 h, 2 µM [32]: 93.2%
- Activity (CCRF-CEM [33]): 1.6%
- Activity (CCRF-CEM [34]): 3.9%
- Activity (CCRF-CEM [35]): 95%
- remaining at 0.25 h, 2 µM [36]: 96.7%
- IC50 [37]: 6.4 µM
- IC50 (HCT-116): 7.4 µM
